We go through one compound from article PMC6017193, “Structure-Based Discovery of a Series of 5H-Pyrrolo[2,3-b]pyrazine FGFR Kinase Inhibitors” (Molecules : A Journal of Synthetic Chemistry and Natural …, 2018).

In assay [1] the target is IGF1R (Homo sapiens, UniProt P08069). The assay is described as follows: Kinase panel profiling. In kind it is biochemical.
The target of assay [2] is EGFR (Homo sapiens, UniProt P00533). The assay is described as follows: Kinase panel profiling. The class given is biochemical.
The target in assay [3] is T1, c-Met (Homo sapiens, UniProt P08581).
T1 construct: purchased Millipore
The assay is described as follows: Kinase panel profiling (ELISA kinase assay). In kind it is biochemical. On the procedure:
(§1) The effects of compounds on the activities of indicated (FGFR1 and c-Met) kinases were determined using enzyme-linked immunosorbent assays (ELISAs) with purified recombinant proteins. Briefly, 20 μg/mL poly (Glu, Tyr)4:1 (Sigma, St. Louis, MO, USA) was precoated in 96-well plates as a substrate. A 50-μL aliquot of 10 μmol/L ATP solution diluted in kinase reaction buffer (50 mmol/L HEPES (pH 7.4), 50 mmol/L MgCl2, 0.5 mmol/L MnCl2, 0.2 mmol/L Na3VO4, and 1 mmol/L DTT) was added to each well; 1 μL of various concentrations of compounds diluted in 1% DMSO (v/v) (Sigma) were then added to each reaction well. DMSO (1%, v/v) was used as the negative control. The kinase reaction was initiated by the addition of purified tyrosine kinase proteins FGFR1 (Millipore, Darmstadt, Germany) or c-Met (Millipore) diluted in 49 μL of kinase reaction buffer. After incubation for 60 min at 37 °C, the plate was washed three times with phosphate-buffered saline (PBS) containing 0.1% Tween 20 (T-PBS). Anti-phosphotyrosine (PY99) antibody (Sanra Cruz, Dallas, TX, USA) (100 μL; 1:500, diluted in 5 mg/mL bovine serum albumin (BSA) T-PBS) was then added. After a 30-min incubation at 37 °C, the plate was washed three times, and 100 μL of horseradish peroxidase-conjugated goat anti-mouse IgG (Calbiochem, Shanghai, China) (1:2000, diluted in 5 mg/mL BSA T-PBS) was added. The plate was then incubated at 37 °C for 30 min, and washed three times. A 100-μL aliquot of a solution containing 0.03% H2O2 and 2 mg/mL o-phenylenediamine in 0.1 mol/L citrate buffer (pH 5.5) was added. The reaction was terminated by the addition of 50 μL of 2 mol/L H2SO4 as the color changed, and the plate was analyzed using a multi-well spectrophotometer (SpectraMAX 190, Molecular Devices, Palo Alto, CA, USA) at 490 nm. The inhibition rate (%) was calculated using the following equation:IR = [1 − (A490/A490control)] × 100%.(1) where IR, A490, and A490control are the inhibition rate, the absorbance value of the tested compound at 490 nm, and the absorbance value of the negative control compound at 490 nm, respectively. The IC50 values were calculated from the inhibition curves in two separate experiments.
A general note: ELISA stands for enzyme-linked immunosorbent assay.

Assay [4] concerns KG1 leukemia cell line harboring FGFR1OP-FGFR1 fusion. The assay is described as follows: Cell proliferation assay in KG1 cells (SRB or MTT, 72 h). The class given is cell-based. The note with it: Homo sapiens, KG-1, mean ± SD from two separate experiments, read-out: KG1 IC50 (antiproliferation activity). On the procedure:
Cell proliferation was examined in a FGFR1-translocated KG1 leukemia cell line harboring FGFR1OP-FGFR1 fusion. The original KG1 cell line was purchased from ATCC (CRL-8031), and cultured according the ATCC standard protocol. Cells were seeded in 96-well tissue culture plates. On the next day, the cells were exposed to various concentrations of compounds and further cultured for 72 h. Cell proliferation was then determined using sulforhodamine B (SRB, from Sigma-Aldrich, St Louis, MO, USA) or the thiazolyl blue tetrazolium bromide (MTT, from Sigma-Aldrich, St Louis, MO, USA) assay. The IC50 values were calculated by concentration- response curve fitting using the four-parameter method.

Assay [5] addresses FGFR2 (Homo sapiens, UniProt P21802). The assay is described as follows: Kinase panel profiling. In kind it is biochemical.
Assay [6] concerns the target T2, FGFR1 (Homo sapiens, UniProt P11362).
T2 construct: purchased Millipore
The assay is described as follows: ELISA kinase assay, FGFR1 enzymatic activity. The class given is biochemical. How it is done: as §1

The target in assay [7] is ErbB4 (Homo sapiens, UniProt Q15303). The assay is described as follows: Kinase panel profiling. The class given is biochemical.
Assay [8] has as its target PDGFR-α (Homo sapiens, UniProt P16234). The assay is described as follows: Kinase panel profiling. The class given is biochemical.

ErbB4, sequence (Q15303 26-1308, species assumed): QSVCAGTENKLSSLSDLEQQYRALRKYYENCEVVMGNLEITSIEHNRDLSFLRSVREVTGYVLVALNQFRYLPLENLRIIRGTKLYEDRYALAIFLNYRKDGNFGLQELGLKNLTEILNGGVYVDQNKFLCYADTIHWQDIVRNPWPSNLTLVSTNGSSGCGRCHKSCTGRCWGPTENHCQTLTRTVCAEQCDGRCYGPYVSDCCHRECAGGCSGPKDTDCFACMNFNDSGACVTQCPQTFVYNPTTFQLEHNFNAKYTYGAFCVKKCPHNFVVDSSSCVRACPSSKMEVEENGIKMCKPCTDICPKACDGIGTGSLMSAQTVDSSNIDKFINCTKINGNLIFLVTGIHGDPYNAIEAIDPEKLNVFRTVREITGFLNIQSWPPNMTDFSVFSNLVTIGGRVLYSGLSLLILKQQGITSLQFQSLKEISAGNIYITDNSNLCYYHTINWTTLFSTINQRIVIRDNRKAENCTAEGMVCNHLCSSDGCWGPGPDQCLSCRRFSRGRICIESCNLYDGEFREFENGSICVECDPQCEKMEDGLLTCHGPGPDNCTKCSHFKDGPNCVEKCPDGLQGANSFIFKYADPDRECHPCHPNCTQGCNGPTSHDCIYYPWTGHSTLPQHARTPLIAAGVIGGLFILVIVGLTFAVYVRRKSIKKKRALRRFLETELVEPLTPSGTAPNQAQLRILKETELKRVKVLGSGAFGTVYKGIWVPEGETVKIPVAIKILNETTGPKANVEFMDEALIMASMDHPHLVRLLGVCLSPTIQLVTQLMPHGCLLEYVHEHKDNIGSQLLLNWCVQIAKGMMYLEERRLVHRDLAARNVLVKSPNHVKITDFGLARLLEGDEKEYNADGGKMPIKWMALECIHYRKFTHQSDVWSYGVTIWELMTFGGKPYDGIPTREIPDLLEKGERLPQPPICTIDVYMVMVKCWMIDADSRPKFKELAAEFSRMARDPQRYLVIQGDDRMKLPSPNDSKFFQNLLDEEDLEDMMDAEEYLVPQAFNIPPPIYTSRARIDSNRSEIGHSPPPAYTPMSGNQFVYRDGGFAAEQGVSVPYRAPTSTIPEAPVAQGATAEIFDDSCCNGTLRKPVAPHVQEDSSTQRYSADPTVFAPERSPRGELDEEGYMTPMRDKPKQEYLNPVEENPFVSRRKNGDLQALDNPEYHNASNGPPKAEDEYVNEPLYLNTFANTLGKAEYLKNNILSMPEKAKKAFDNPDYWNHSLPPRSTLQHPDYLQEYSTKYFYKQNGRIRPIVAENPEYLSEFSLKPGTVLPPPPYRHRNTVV
PDGFR-α, sequence (P16234 24-1089, species assumed): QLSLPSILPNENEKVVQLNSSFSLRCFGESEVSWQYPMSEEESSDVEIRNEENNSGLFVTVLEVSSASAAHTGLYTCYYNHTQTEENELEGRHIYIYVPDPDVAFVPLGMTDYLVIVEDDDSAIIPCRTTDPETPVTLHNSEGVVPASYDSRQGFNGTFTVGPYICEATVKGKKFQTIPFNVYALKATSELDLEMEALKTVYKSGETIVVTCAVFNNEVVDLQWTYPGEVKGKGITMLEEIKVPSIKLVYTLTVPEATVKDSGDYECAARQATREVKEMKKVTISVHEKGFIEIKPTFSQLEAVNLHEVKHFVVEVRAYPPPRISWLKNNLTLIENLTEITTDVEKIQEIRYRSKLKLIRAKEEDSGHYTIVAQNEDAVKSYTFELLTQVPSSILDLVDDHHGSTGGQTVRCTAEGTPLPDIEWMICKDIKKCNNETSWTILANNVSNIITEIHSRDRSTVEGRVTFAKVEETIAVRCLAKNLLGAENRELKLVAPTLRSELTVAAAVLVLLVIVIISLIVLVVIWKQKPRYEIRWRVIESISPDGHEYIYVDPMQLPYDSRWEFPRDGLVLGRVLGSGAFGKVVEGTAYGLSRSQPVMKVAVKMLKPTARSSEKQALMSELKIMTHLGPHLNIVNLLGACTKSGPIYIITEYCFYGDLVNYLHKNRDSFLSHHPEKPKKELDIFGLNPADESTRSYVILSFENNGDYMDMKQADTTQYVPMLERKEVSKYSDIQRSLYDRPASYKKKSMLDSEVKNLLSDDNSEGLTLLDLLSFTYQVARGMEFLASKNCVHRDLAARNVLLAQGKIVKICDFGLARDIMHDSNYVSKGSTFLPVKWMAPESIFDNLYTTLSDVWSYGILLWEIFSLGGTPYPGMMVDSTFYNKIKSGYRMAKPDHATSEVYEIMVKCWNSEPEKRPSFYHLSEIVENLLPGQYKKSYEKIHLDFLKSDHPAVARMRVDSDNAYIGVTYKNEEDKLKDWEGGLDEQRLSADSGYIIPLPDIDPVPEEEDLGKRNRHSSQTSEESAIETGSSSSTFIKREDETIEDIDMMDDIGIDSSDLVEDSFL
FGFR2, sequence (P21802 22-821): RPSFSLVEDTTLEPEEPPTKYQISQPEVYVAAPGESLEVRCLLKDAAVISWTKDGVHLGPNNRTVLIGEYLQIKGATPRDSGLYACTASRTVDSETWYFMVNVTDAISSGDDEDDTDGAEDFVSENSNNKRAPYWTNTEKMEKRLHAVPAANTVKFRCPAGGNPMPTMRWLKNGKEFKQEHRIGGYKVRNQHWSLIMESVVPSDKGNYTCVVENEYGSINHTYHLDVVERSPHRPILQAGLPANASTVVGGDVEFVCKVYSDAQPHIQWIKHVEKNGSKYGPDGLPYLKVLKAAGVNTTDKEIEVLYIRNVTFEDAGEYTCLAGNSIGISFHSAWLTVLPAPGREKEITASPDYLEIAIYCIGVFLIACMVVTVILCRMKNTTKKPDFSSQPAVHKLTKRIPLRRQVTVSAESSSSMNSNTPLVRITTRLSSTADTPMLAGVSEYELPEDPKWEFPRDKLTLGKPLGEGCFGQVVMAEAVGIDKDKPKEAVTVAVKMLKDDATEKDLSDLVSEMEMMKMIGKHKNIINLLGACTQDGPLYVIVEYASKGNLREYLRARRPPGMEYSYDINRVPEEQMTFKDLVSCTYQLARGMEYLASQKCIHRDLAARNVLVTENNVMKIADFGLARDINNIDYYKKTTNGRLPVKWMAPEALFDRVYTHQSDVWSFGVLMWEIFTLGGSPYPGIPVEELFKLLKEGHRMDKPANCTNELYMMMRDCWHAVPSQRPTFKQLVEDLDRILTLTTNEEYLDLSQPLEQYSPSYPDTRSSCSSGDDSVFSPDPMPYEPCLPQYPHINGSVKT
T2 sequence (P11362 22-822): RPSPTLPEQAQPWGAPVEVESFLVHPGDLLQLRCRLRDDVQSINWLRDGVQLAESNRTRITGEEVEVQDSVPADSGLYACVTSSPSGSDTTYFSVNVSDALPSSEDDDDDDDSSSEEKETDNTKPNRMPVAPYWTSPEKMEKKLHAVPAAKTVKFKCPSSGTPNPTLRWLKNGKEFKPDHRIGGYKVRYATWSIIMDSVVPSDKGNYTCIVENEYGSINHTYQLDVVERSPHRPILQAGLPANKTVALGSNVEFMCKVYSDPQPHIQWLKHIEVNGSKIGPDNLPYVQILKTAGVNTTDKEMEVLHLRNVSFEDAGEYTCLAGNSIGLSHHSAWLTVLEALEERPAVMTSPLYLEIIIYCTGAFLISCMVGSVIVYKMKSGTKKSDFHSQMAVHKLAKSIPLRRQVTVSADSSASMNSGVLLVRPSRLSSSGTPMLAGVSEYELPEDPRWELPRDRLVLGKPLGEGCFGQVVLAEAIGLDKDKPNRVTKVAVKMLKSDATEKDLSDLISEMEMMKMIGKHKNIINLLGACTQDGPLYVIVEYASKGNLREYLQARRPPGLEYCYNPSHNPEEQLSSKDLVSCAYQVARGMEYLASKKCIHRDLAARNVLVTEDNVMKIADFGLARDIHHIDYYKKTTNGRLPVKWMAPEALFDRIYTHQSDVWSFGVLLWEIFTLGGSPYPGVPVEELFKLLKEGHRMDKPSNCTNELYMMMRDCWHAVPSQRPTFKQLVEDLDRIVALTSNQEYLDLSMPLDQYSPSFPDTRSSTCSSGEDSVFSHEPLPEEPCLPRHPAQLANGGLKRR

One may read the inhibition as the relative decrease from the control value, in per cent. With `O=S(=O)(c1cn(CCF)cn1)n1ccc2ncc(-c3cn[nH]c3)nc21` [Compound 13, 5-((1-(2-fluoroethyl)-1H-imidazol-4-yl)sulfonyl)-3-(1H-pyrazol-4-yl)-5H-pyrrolo[2,3-b]pyrazine], the inhibition at 0.01 µM was -3.8% in assay [1] (10 nM); 0% in assay [2] (10 nM); 3.9% in assay [3] (10 nM); 60.9% in assay [5] (10 nM); above 90% in assay [6] (0.01 μM (10 nM), mean of two separate experiments); 0% in assay [7] (10 nM). For the same compound, the inhibition at 0.01 µM in assay [8] (10 nM) is 21.9%. The inhibition at 0.1 µM was found to be 3% in assay [1] (100 nM); 0% in assay [2] (100 nM); 3.9% in assay [3] (100 nM); 92% in assay [5] (100 nM); 91.7% in assay [6] (0.1 μM, mean of two separate experiments); 0% in assay [7] (100 nM). In addition, the inhibition at 0.1 µM in assay [8] (100 nM) is 20.9%. The inhibition at 1 µM in assay [1] (1000 nM) is 11.8%; in assay [2] (1000 nM), 0%; in assay [3] (1000 nM (1 μM)), 4.6%; in assay [5] (1000 nM), 97.2%; in assay [6] (1 μM, mean of two separate experiments) it was 100%; in assay [7] (1000 nM), 3%. Moreover, the inhibition at 1 µM in assay [8] (1000 nM) is 23.2%. For the same compound, the “Kinase Inhibition (%) c-Met” value in assay [3] (1000 nM (1 μM)) was “nearly no inhibition”. The figures for the IC50 in assay [4] and in assay [6] (mean ± SD from two separate experiments) were 29.1 ± 5.5 nM and 0.6 ± 0.2 nM, respectively.
